# Laboratory results taken from patent publication US11584711B2, “2,2,2-trifluoroacetic acid 1-(2,4-dimethylphenyl)-2-[(3-methoxyphenyl)methylene] method of making the same” (Abrexa Pharmaceuticals, Inc., priority 2018, dated 2023).
# “Also recorded” adds a separate entry of the source. Where two headings read alike, the source gives them in different places.
# Legend:
# [1] = Competitive Slurry Experiments; assay type: physicochemical; conditions: ambient temperature and pressure
# Procedure: These experiments rely on the solubility differences of different polymorphic forms.
# The slurry experiments were performed by exposing excess material of Forms I and II to a small volume of solvent/water and agitating the resulting suspensions for several days at ambient temperature. The solids were filtered and analyzed by XRD and DSC to determine the resulting form. To avoid possible desolvation or physical change after isolation, the sample was not dried before x-ray analysis.
# [2] = Polymorph screen summary of solid state forms; assay type: physicochemical; conditions: room temperature and pressure
# Source text: The raw diffraction data generated from the polymorph screening experiments were categorized into two polymorphic forms. Samples of these different forms were used to perform additional experiments (DSC, TGA, HSM, etc.) to refine the forms.
# The main result is the discovery of two anhydrous polymorphic forms of J147. The polymorphic forms isolated in this Example were designated I and II. At room temperature and pressure Form II is the thermodynamically form of J147. Form I is the metastable form at room temperature and pressure.
# [3] = Heat storage / variable temperature XRD form conversion; assay type: physicochemical; conditions: for form conversion by XRD: 40° C. oven over weekend
# Procedure: Recrystallization Using Heat: Amorphous/glass samples from Panel 1 were placed in a vacuum oven at 60° C. for 6 days. […] A sample of Form I was placed in a 40° C. in oven over a weekend.
# [4] = Hygroscopicity-Dynamic Vapor Sorption (DVS); assay type: physicochemical; conditions: 25° C.; for tendency to hydrate formation (DVS): 0 to 95% RH; for total weight loss (DVS): at 95% RH
# Procedure: Hygroscopicity-Dynamic Vapor Sorption (DVS): DVS is a gravimetric screening technique that measures how quickly and how much of a solvent (water) is adsorbed by a sample. The relative humidity or vapor concentration surrounding the sample is varied while the change in mass of the sample is measured. […] The mass values at each relative humidity step are used to generate the isotherm. Isotherms are divided in two components: sorption for increasing humidity steps and desorption for decreasing humidity steps.
# The samples were analyzed using a TA Q2000 automated dynamic vapor sorption analyzer. The samples were dried at 40° C. for 5 hours and then cooled to 25° C. with a dry nitrogen purge over them until they no longer lost mass at 0% RH. The samples were then subjected to 0 to 95% RH, back to 0% RH at 25° C. in 5% RH steps.
# [5] = Static Vapor Sorption Study; assay type: physicochemical; conditions: 75% RH static humidity chamber, ambient temperature, after 5 and 12 days
# Source text: Static Vapor Sorption Study: A […] vapor sorption study was done in a sealed humidity chamber with an automatic moisture sorption balance. Data collected during dynamic vapor sorption studies often are not at thermodynamic equilibrium. To determine if the Form I and Form II material form a hydrate over time, samples were monitored in a 75% static humidity chamber.
# In these studies, samples were stored in open Petri dishes in a chamber containing a saturated salt solution to maintain the relative vapor pressure. A solution of saturated sodium chloride (75% RH) salt at ambient temperature was used.
# The samples were examined gravimetrically after 5 and 12 days.
# [6] = system: transgenic AD mouse model; conditions: cited from earlier work
# normal rodents = conditions: cited from earlier work
# [7] = Visual Solubility Measurement; assay type: physicochemical; conditions: thermodynamic from solid, ambient temperature, read-out: Approximate Solubility
# Procedure: Visual Solubility Measurement: Approximately 80 mg of J147 was placed into each of 25 vials. Solvent was added and vials were stirred for several minutes at ambient temperature, followed by visual observation for remaining solids. The solvent was incrementally added until the solids were dissolved, or until a maximum volume of solvent was added and the experiment was terminated. These stock solutions were used to set up further panels of experiments.
# [8] = system: neurotoxicity pathways related to aging and neurodegenerative diseases; conditions: assays indicating distinct neurotoxicity pathways; cited from earlier work
# Grinding = assay type: physicochemical; conditions: ball mill 1 minute at 4800 oscillations per minute
# Procedure: Grinding: Form I was ground using a Crescent Wig-L-Bug ball mill for 1 minute at 4800 oscillations per minute (3.2 m/s).
smiles,measurement,setting,value
"COc1cccc(C=NN(C(=O)C(F)(F)F)c2ccc(C)cc2C)c1 [Form II, 2,2,2-trifluoroacetic acid 1-(2,4-Dimethylphenyl)-2-[(3-methoxyphenyl)methylene]hydrazide]",solubility and thermodynamic stability relative to Form I,[1],"less soluble, more thermodynamically stable"
same,Description (thermodynamic stability of form),[2],Thermodynamically
same,form conversion by XRD,[3],no form conversion
same,tendency to hydrate formation (DVS),[4],does not appear to be prone to hydrate formation
same,total weight loss (DVS),[4],approximately 0.5%
same,hydrate formation (gravimetric weight change),[5],no hydrate formation
"COc1cccc(/C=N/N(C(=O)C(F)(F)F)c2ccc(C)cc2C)c1 [Form J147, 2,2,2-trifluoroacetic acid 1-(2,4-Dimethylphenyl)-2-[(3-methoxyphenyl)methylene] hydrazide]",effect on synaptic proteins and cognitive decline,[6],prevent the loss of synaptic proteins and cognitive decline
same,effect on memory,normal rodents,improve memory
same,solubility,"[7]; organic solvent or mixture, 1-butanol",40 mg/mL
same,solubility,"[7]; organic solvent or mixture, 1-propanol",> 80 mg/mL
same,solubility,"[7]; organic solvent or mixture, 2-butanol",40 mg/mL
same,solubility,"[7]; organic solvent or mixture, 2-propanol",40 mg/mL
same,solubility,"[7]; organic solvent or mixture, acetone",> 80 mg/mL
same,solubility,"[7]; organic solvent or mixture, acetonitrile (ACN)",> 80 mg/mL
same,solubility,"[7]; organic solvent or mixture, butyl amine",> 80 mg/mL
same,solubility,"[7]; organic solvent or mixture, chloroform",> 80 mg/mL
same,solubility,"[7]; organic solvent or mixture, dichloromethane (DCM)",> 80 mg/mL
same,solubility,"[7]; organic solvent or mixture, dimethyl formamide (DMF)",> 80 mg/mL
same,solubility,"[7]; organic solvent or mixture, dimethylacetamide (DMA)",> 80 mg/mL
same,solubility,"[7]; organic solvent or mixture, ethanol",> 80 mg/mL
same,solubility,"[7]; organic solvent or mixture, ethyl acetate",> 80 mg/mL
same,solubility,"[7]; organic solvent or mixture, heptane",8 mg/mL
same,solubility,"[7]; organic solvent or mixture, isopropyl acetate",> 80 mg/mL
same,solubility,"[7]; organic solvent or mixture, isopropyl ether",> 80 mg/mL
same,solubility,"[7]; organic solvent or mixture, methanol",> 80 mg/mL
same,solubility,"[7]; organic solvent or mixture, methyl ethyl ketone (MEK)",> 80 mg/mL
same,solubility,"[7]; organic solvent or mixture, methyl tert butyl ether (MTBE)",> 80 mg/mL
same,solubility,"[7]; organic solvent or mixture, nitromethane",> 80 mg/mL
same,solubility,"[7]; organic solvent or mixture, pyridine",> 80 mg/mL
same,solubility,"[7]; organic solvent or mixture, tetrahydrofuran (THF)",> 80 mg/mL
same,solubility,"[7]; organic solvent or mixture, toluene",> 80 mg/mL
same,solubility,"[7]; organic solvent or mixture, trifluoroethanol",> 80 mg/mL
same,solubility,[7]; water,< 1.6 mg/mL
same,EC50,[8],10 to 200 nM
COc1cccc(/C=N/N(C(=O)C(F)(F)F)c2ccc(C)cc2C)c1 [Amorphous/glass samples from Panel 1],form by XRD after heating,[3]; vacuum oven at 60° C. for 6 days,XRD pattern of Form II
"COc1cccc(C=NN(C(=O)C(F)(F)F)c2ccc(C)cc2C)c1 [Form I, 2,2,2-trifluoroacetic acid 1-(2,4-Dimethylphenyl)-2-[(3-methoxyphenyl)methylene]hydrazide]",form transformation by XRD after grinding,Grinding,no transformation
same,Description (thermodynamic stability of form),[2],Metastable
same,form conversion by XRD,[3],conversion to Form II
same,form conversion by variable temperature XRD,[3]; held at 35° C. over a weekend,no form conversion
same,tendency to hydrate formation (DVS),[4],does not appear to be prone to hydrate formation; also recorded: did not appear to be prone to hydrate formation
same,total weight loss (DVS),[4],approximately 0.5%
same,hydrate formation (gravimetric weight change),[5],no hydrate formation
